Structures can show the parent of a compound that is named as a salt.
How the values were obtained:
[1] = tested on: BER of ODD in SUM149PT cells; test: High-throughput chemical screen with cell-based DNA repair assay (oxidatively damaged GFP reporter, host-cell reactivation); conditions: for EC50: read-out: EC50 (image analysis), dose-response increase in GFP expression by imaging, 20 μM to 0.3 μM two-fold dilutions; for Priority score (summed priority score): sum of assigned priority scores, range 1-10, 10 = highest priority; for % BER (High) (image analysis): % BER activity relative to negative control at high concentration; for identified as hit in the screen (enhanced BER of ODD): LOPAC1280 library, summed priority score above 1;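 on all read-outs here: SUM149PT cells pretreated 24 h with compound, then given photodynamically oxidized adenoviral GFP reporter, 24 h host-cell reactivation, GFP read as repair, undamaged reporter positive and damaged reporter negative control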
[2] = tested on: BER of ODD in MCF7 cells (wild-type BRCA1, BER-proficient); test: DNA repair assay (oxidatively damaged GFP reporter gene), follow-up; type: cell-based, human; conditions: BER-proficient MCF7 cells
Description: (§1) Human breast cancer cell lines that were deficient in BER (HCC1143, MDAMB468, HCC1937, and SUM149) or proficient in BER (BT474 and MCF7) were cultured according to American Type Culture Collection guidelines, with the exception of SUM149, which was cultured according to Asterand plc guidelines. Brca1^+/+ and Brca1^-/- mouse mammary epithelial […] previously described. Cells were treated with DMSO (vehicle control) or acetohexamide or benserazide as indicated for 24 hours at 37° C. and 5% CO2. The DNA repair assay was carried out as described in the examples below. Where indicated, BER (base excision mode of DNA repair) activity was expressed relative to the control (DMSO).

[3] = tested on: BER of ODD in SUM149 cells (mutant BRCA1, BER-defective); test: as above; type: cell-based, human; conditions: for BER compared to the vehicle control (SAR mini-analysis): SUM149PT cells; for repair activity compared to the vehicle control: SUM149
Description: as §1

[4] = tested on: MCF7 cells transduced with non-targeting control; test: Soft agar colony formation assay; type: cell-based, human
Source text: (§2) […] Colony formation represents tumorigenic potential. Tamoxifen is the current FDA-approved chemoprevention agent for breast cancer and a therapeutically-equivalent dose was used for comparison.
(§3) Benserazide and carbidopa were also both included among the compounds screened for BER-enhancing activity (FIG. 3A-3B). […] Therefore, we first validated our screening data by subjecting the mutant BRCA1-containing SUM149 cell line to the BER assay following pre-treatment with vehicle control or carbidopa.

[5] = tested on: MCF7 cells transduced with shRNA to BRCA1; test: Soft agar colony formation assay; type: cell-based, human
Source text: as §2, §3

Structure (SMILES)	EC50 [1]	Priority score (summed priority score) [1]	further results
Cl.NC(CO)C(=O)NNCc1ccc(O)c(O)c1O (racemic) [Benserazide hydrochloride, DL-Serine 2-(2,3,4-trihydroxybenzyl)hydrazide hydrochloride]	22.1 µM	7	–
COC(=O)C(N)Cc1ccc(Cl)cc1.Cl (racemic) [DL-p-Chlorophenylalanine methyl ester hydrochloride]	25.8 µM	7	–
CN(C)CCC(c1ccc(Br)cc1)c1ccccn1.O=C(O)/C=C\C(=O)O (single isomer, unassigned; (+)) [(+)-Brompheniramine maleate]	27.5 µM	7	% BER (High) (image analysis) ([1]; imaging): 29.4%
Cl.NCCc1ccc(S(=O)(=O)F)cc1 [4-(2-Aminoethyl)benzenesulfonyl fluoride hydrochloride]	98.7 µM	7	% BER (High) (image analysis) ([1]; imaging): 25.1%
O=c1[nH]c(=O)n([C@H]2C[C@H](O)[C@@H](CO)O2)cc1Br [5-Bromo-2′-deoxyuridine]	7.27 µM	10	GFP signal in image montage ([1]; preliminary screen, highest concentration tested 18 uM): visible signal similar to that of SUM149PTcells infected with undamaged adGFP; percentage of GFP-positive cells (normalized to Hoechst 33342-positive cells) ([1]; preliminary screen, imaging): dose-response increase in the percentage of GFP-positive cells; GFP intensity (normalized to Hoechst 33342-intensity) ([1]; preliminary screen, plate reading): dose-response increase in GFP intensity
N=c1ccn2c(n1)O[C@H]1[C@H](O)[C@@H](CO)O[C@H]12 [Ancitabine hydrochloride]	19.8 µM	10	–
Cc1ccc(S(=O)(=O)NC(=O)NC2CCCCC2)cc1 [BA-4]	–	–	repair compared to vehicle control (SAR mini-analysis) [2]: none of the four analogs significantly increased repair; BER compared to the vehicle control (SAR mini-analysis) [3]: significantly increased BER
CCCCNC(=O)NS(=O)(=O)c1ccccc1 [BA-5]	–	–	repair compared to vehicle control (SAR mini-analysis) [2]: none of the four analogs significantly increased repair; BER compared to the vehicle control (SAR mini-analysis) [3]: increased BER in these cells but without statistical significance
CC(C)CCNC(=O)NS(=O)(=O)c1ccccc1 [BA-9]	–	–	repair compared to vehicle control (SAR mini-analysis) [2]: none of the four analogs significantly increased repair; BER compared to the vehicle control (SAR mini-analysis) [3]: significantly increased BER
CC(C)COCC(CN(Cc1ccccc1)c1ccccc1)N1CCCC1 (stereo not drawn) [Bepridil hydrochloride]	22.7 µM	10	–
CC[N+](C)(C)Cc1ccccc1Br [Bretylium tosylate]	26.9 µM	7	–
CNc1ccc2oc(C[C@H]3O[C@@]4(CC[C@H]3C)O[C@H]([C@H](C)C(=O)c3ccc[nH]3)[C@H](C)C[C@H]4C)nc2c1C(=O)O [Calcimycin]	5.14 µM	7	–
C[C@@]12C(=O)OC(=O)[C@]1(C)[C@H]1CC[C@@H]2O1 [Cantharidin]	–	10	–
C[C@H](CS)C(=O)N1CCC[C@H]1C(=O)O [Captopril]	18.8 µM	7	–
CN(C)CCOC(=O)COc1ccc(Cl)cc1 [Centrophenoxine hydrochloride]	20.4 µM	7	–
Clc1ccccc1C(c1ccccc1)(c1ccccc1)n1ccnc1 [Clotrimazole]	–	7	–
CC(=O)O[C@]1(C(C)=O)CC[C@H]2[C@@H]3C=C(Cl)C4=CC(=O)[C@@H]5C[C@@H]5[C@]4(C)[C@H]3CC[C@@]21C [Cyproterone acetate]	27.8 µM	7	–
Cl.Nc1ccn([C@@H]2O[C@H](CO)[C@@H](O)[C@@H]2O)c(=O)n1 [Cytosine-1-beta-D-arabinofuranoside hydrochloride]	22.8 µM	10	% BER (High) (image analysis) ([1]; imaging): 18.3%
Cc1cnc(C(=O)NCCc2ccc(S(=O)(=O)NC(=O)NC3CCCCC3)cc2)cn1 [Glipizide, N-(4-[N-(cyclohexylcarbamoyl)sulfamoyl]phenethyl)-5-methylpyrazine-2-carboxamide]	–	2	repair compared to vehicle control (SAR mini-analysis) [2]: none of the four analogs significantly increased repair; BER compared to the vehicle control (SAR mini-analysis) [3]: significantly increased BER; relative BER activity ([3]; relative to the control (DMSO)): 1.22±0.12; identified as hit in the screen (enhanced BER of ODD) [1]: identified as a hit
O=C1c2c(O)ccc(O)c2C(=O)c2c(NCCNCCO)ccc(NCCNCCO)c21 [Mitoxantrone]	13.2 µM	7	–
C[C@@](Cc1ccc(O)c(O)c1)(NN)C(=O)O [carbidopa, Carbidopa]	–	–	repair activity compared to the vehicle control ([3]; 10 μM): no effect on repair activity; repair activity compared to the vehicle control ([3]; 20 μM): no effect on repair activity; colony formation compared to vehicle control ([4]; 10 μM): no significant effect on colony formation; colony formation compared to vehicle control ([4]; 20 μM): no significant effect on colony formation; colony formation compared to vehicle control ([5]; 10 μM): no significant effect on colony formation; colony formation compared to vehicle control ([5]; 20 μM): no significant effect on colony formation; identified as hit in the screen (enhanced BER of ODD) [1]: did not identify carbidopa as a hit

Reference: patent US10188617B2, “Modulation of cellular DNA repair activity to intercept malignancy” (THE BOARD OF TRUSTEES OF THE LELAND STANFORD JUNIOR …, priority 2013, dated 2019)
